Assay results from patent US20100292209A1, “METHODS FOR IDENTIFYING COMPOUNDS THAT MODULATE NEUROTROPHIC FACTOR SIGNALING” (Massachusetts Institute of Technology, priority 2007, published 2010).

Tests used:
ErbB4 [1] = target: T1, ErbB4 (Homo sapiens, UniProt Q15303); assay: Nrg1-induced ErbB4 phosphorylation (immunoprecipitation, western blot); type: cell-based; settings: 1 μM Iressa, 20 ng/ml Nrg1, lysed after 5 minutes
T1 construct: expressed in transfected cells
Experimental: (§1) Average outgrowth per cell was measured after 2 days incubation. C. Cells were pretreated with Iressa or Tarceva at various concentrations for 30 minutes followed by 20 ng/ml Nrg1. Mean outgrowth per cell was measured after 2 days incubation. D. […] Cell lysates were immunoprecipitated by anti-ErbB4 antibody followed by western blotting with antibodies against phospho-tyrosine and ErbB4. Phosphor-ERK1/2 and total Erk2 levels were determined by direct western blotting with cell lysates.
(§2) Cells were lysed with RIPA buffer (Pierce Technology, Rockford, Ill.) containing 1 tablet/10 ml protease inhibitor cocktail Complete Mini (Roche Applied Science). For phosphoprotein analysis, Halt Phosphatase Inhibitor Cocktail (Pierce Technology) was also included. Cell lysate was cleared by centrifuge at 15,000 rpm for 30 min followed by addition of LDS sample buffer (Invitrogen) for direct analysis or immunoprecipitated with specific primary antibodies and Protein A/G agarose (Pierce Technology) following the manufacturer's protocol. […] The membrane was probed with specific primary antibodies according to specified recipes provided by their vendors and then horse radish peroxidase-conjugated secondary antibody to mouse or rabbit IgG (GE Healthcare, Piscataway, N.J.). Target protein bands were detected with SuperSignal West Femto Max Sensitivity Substrate (Pierce Technology).

ERK/MAPK = ERK/MAPK phosphorylation (western blot of cell lysates); type: cell-based
Experimental: as §1, §2

ErbB4 [2] = target: T1, ErbB4; assay: Iressa-conjugated agarose (iTrap) affinity capture of ErbB4 from cell lysate; type: binding; settings: 10 uM free Iressa
Experimental: PC12-ErbB4-GFP cells were lysed with modified RIPA buffer at 4° C. for 10 min and the cell lysate was cleared by centrifugation. The cleared lysate (0.40 ml) was tumbled with Iressa (10 μM) or DMSO (1:1000 v/v) as indicated at 4° C. for 30 min before addition of the iTrap resin (10 μA). The resulting mixture was tumbled at 4° C. for 12 hours. The suspension was centrifuged and the supernatant was discarded. The resin was washed with the above modified RIPA buffer (1.0 ml) for four times. The captured proteins were separated by SDS-PAGE. The Western immunoblotting experiment was then performed using anti-ErbB4 antibody.
Agarose beads (iTrap) conjugated with a derivative of Iressa (Iressa—2, FIG. 6A) were used to examine the affinity of Iressa against ErbB4.

neurotrophin-3 = settings: cited from earlier work
NGF-TrkA signaling = settings: compared with K252a; cited from earlier work
PFC pyramidal neuron = PFC pyramidal neuron current assay; cited from earlier work
[3] = tested on: cultured hippocampal neurons; settings: cited from earlier work
PC12-ErbB4-GFP cells [4] = assay: NGF-induced neurite outgrowth, live-cell imaging; type: cell-based
PC12-ErbB4-GFP cells [5] = assay: Nrg1-induced neurite outgrowth, live-cell imaging; type: cell-based
Experimental: Average outgrowth per cell was measured after 2 days incubation. C. Cells were pretreated with Iressa or Tarceva at various concentrations for 30 minutes followed by 20 ng/ml Nrg1. Mean outgrowth per cell was measured after 2 days incubation. D. Cells were pretreated with 2 μM Iressa or DMSO for 30 minutes followed by 20 ng/ml Nrg1 or NGF and lysed after 5 minutes. Cell lysates were immunoprecipitated by anti-ErbB4 antibody followed by western blotting with antibodies against phospho-tyrosine and ErbB4. Phosphor-ERK1/2 and total Erk2 levels were determined by direct western blotting with cell lysates.
C. […] Mean outgrowth per cell was measured after 2 days incubation.

ErbB4 [6] = assay: ErbB4 level (western blot, immunofluorescence staining); type: cell-based, human; settings: 50 nM, 12 hrs treatment, PC12-ErbB4
Experimental: (§3) A. Cells were treated without or with K252a (50 nM), K252a-Me (50 nM) for 30 min followed by treatment with or without 20 ng/mL Nrg1. Cells were lysed 12 hrs after Nrg1 treatment and analyzed by Western blot with anti-ErbB4 antibody. The bands that correspond to ErbB4 are indicated. B. Cells were treated without or with K252a (50 nM), K252a-Me (50 nM) for 12 hrs then fixed and immunostained with anti-ErbB4 and Alexa594 conjugated secondary antibody. GFP and Alexa594 fluorescent cell images were taken using a 20× objective. C. Cells were treated without or with K252a (50 nM) for 12 hrs followed by treatment of 20 ng/mL Alexa594-Nrg1 for 30 mins and fixed. GFP and Alexa594 fluorescent cell images were taken using a 40× objective.
(§4) This phenomenon, confirmed by immunofluorescence staining for ErbB4 in PC12-ErbB4 (FIG. 7B), might explain why K252a potentiate Nrg1-induced neurite outgrowth. To verify that increased level of ErbB4 does contribute to neuregulin signaling, we examined the Nrg1 uptake with Alexa594-labeled Nrg1 (FIG. 7C). Cells were treated with K252a for 12 hrs followed by Alexa594-labeled Nrg1 for 30 min.

PC12-ErbB4 = assay: Uptake of Alexa594-labeled Nrg1; type: cell-based; settings: K252a 50 nM 12 hrs, then Alexa594-labeled Nrg1 30 min, compared to DMSO-treated cells
Experimental: as §3, §4

T1 sequence (Q15303 26-1292 isoform Q15303-3 limits assumed): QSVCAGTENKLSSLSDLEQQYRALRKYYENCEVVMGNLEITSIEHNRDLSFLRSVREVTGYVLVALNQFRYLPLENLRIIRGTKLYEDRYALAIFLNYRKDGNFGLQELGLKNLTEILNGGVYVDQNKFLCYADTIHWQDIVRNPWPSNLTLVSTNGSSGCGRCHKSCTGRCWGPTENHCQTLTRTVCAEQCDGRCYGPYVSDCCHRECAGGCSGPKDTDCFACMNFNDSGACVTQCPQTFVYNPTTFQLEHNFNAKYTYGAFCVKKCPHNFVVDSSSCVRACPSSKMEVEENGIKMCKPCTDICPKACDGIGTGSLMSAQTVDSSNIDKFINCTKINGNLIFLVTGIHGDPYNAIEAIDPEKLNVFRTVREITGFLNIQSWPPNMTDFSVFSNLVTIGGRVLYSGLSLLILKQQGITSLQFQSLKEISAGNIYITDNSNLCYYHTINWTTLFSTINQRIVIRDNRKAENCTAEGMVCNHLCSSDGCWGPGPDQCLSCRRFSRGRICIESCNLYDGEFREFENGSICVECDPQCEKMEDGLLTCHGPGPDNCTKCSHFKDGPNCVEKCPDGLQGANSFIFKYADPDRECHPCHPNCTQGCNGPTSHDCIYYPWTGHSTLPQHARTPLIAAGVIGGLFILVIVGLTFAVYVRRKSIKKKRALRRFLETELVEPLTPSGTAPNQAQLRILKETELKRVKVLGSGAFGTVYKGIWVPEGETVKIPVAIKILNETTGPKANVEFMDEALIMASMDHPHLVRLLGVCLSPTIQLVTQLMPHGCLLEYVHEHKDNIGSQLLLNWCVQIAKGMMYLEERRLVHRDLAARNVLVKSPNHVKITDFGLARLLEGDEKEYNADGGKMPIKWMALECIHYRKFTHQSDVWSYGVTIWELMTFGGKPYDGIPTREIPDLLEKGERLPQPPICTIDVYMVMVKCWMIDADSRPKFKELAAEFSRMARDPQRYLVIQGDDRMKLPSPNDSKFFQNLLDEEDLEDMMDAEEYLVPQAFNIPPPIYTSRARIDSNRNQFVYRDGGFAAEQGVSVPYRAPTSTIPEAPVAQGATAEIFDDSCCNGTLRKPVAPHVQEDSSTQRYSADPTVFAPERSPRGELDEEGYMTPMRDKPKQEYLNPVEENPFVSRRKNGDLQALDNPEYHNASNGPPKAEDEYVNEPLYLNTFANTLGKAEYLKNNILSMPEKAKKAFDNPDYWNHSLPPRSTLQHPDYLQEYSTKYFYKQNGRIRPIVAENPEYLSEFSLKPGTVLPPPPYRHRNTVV

COc1cc2ncnc(Nc3ccc(F)c(Cl)c3)c2cc1OCCCN1CCOCC1 [Iressa, N-(3-chloro-4-fluoro-phenyl)-7-methoxy-6-(3-morpholin-4-ylpropoxy)quinazolin-4-amine]
phosphorylation of ErbB4 receptors induced by Nrg1 (ErbB4 [1]): inhibited
subsequent phosphorylation of ERK/MAPK (Nrg1-induced) (ERK/MAPK; 20 ng/ml Nrg1): diminished
NGF-induced MAPK activation (ERK/MAPK; Iressa, 20 ng/ml NGF): did not affect
precipitation of ErbB4 by iTrap in competition with free Iressa (ErbB4 [2]): attenuated

CC12OC(CC1(O)C(=O)O)n1c3ccccc3c3c4c(c5c6ccccc6n2c5c31)C(=O)NC4 (centres unmarked) [K252b]
trophic action of neurotrophin-3 (neurotrophin-3): potentiates
potency on inhibiting NGF-TrkA signaling (NGF-TrkA signaling): much lower potency

CNc1cc2c(Nc3cccc(Br)c3)ncnc2cn1 [PD158780]
decrement in current caused by Nrg1 (PFC pyramidal neuron): reverses
Nrg1 induced neurite outgrowth in cultured hippocampal neurons [3]: decreases

NGF: Nerve Growth Factor, neurotrophin
mean neurite length induced by NGF (PC12-ErbB4-GFP cells [4]; 20 ng/ml, in the presence of DMSO, 48 hours): 8.7±1.5 μm

C#Cc1cccc(Nc2ncnc3cc(OCCOC)c(OCCOC)cc23)c1 [Tarceva, N-(3-ethynylphenyl)-6,7-bis(2-methoxyethoxy)quinazolin-4-amine]
inhibition of NGF-induced neurite outgrowth (PC12-ErbB4-GFP cells [4]; concentration range of 100 nM˜1 (data not shown)): not inhibited
IC50 (PC12-ErbB4-GFP cells [5]; read-out: IC50 of inhibition of Nrg1-induced neurite outgrowth): 0.5 µM

COC(=O)[C@@]1(O)C[C@H]2O[C@]1(C)n1c3ccccc3c3c4c(c5c6ccccc6n2c5c31)C(=O)NC4 [K252a, methyl (5R,6R,8R)-6-hydroxy-5-methyl-13-oxo-5,6,7,8,14,15-hexahydro-13H-5,8-epoxy-4b,8a,14-triazadibenzo[b,h]cycloocta[1,2,3,4-jkl]cyclopenta[e]-as-indacene-6-carboxylate]
level of ErbB4 (ErbB4 [6]): significantly increased
inhibition of NGF-induced neurite outgrowth (PC12-ErbB4-GFP cells [4]; K252a at 10 nM): completely inhibited
potentiation of Nrg1-induced neurite outgrowth (PC12-ErbB4-GFP cells [5]; same concentration range (10 nM)): potentiated
Nrg1 uptake (PC12-ErbB4): significantly higher

O=C1NCc2c1c1c3ccccc3[nH]c1c1[nH]c3ccccc3c21 [K252c]
effect on Nrg1-induced neurite outgrowth in kinase inhibitor screening (PC12-ErbB4-GFP cells [5]; single dose (10 micromolar), 48 hours): potentiates

COc1cc2ncnc(Nc3cccc(Cl)c3)c2cc1OC [AG1478, 4-(3-Chloroanilino-6,7-dimethoxy)-quinazoline]
effect on Nrg1-induced neurite outgrowth (PC12-ErbB4-GFP cells [5]; 1 μM AG1478, 20 ng/ml Nrg1, 2 days): can specifically inhibit
